Source: patent publication US20140221361A1, “C-19 MODIFIED TRITERPENOIDS WITH HIV MATURATION INHIBITORY ACTIVITY” (priority 2013, published 2014)

System: recombinant NL4-3 virus (Renilla luciferase in nef, Gag P373S)
Experiment: HIV cell culture assay (luciferase reporter, MT-2 cells)
Assay type: cell-based, HIV-1
Conditions: Renilla, NL43, MT-2 cells infected for 4-5 days with NLRluc recombinants; luciferase activity; serial dilutions of inhibitor
Method in brief: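 MT-2 cells infected with recombinant NL4-3 carrying Renilla luciferase in place of part of nef and Gag P373S, virus made by 293T transfection. Infection ran 4-5 days with serial inhibitor dilutions. Antiviral activity read as luciferase activity (Dual Luciferase reagents mixed with lysis buffer).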

SMILES	EC50
CC([C@@H]1CC[C@]2(NCCN3CCS(=O)(=O)CC3)CC[C@]3(C)[C@H](CC[C@@H]4[C@@]5(C)CC=C(c6ccc(C(=O)O)cc6)C(C)(C)[C@@H]5CC[C@]43C)[C@@H]12)N1CCOCC1 (stereo partly drawn) [Example B20, 4-((1R,3aS,5aR,5bR,7aR,11aS,11bR,13aR,13bS)-3a-((2-(1,1-dioxidothiomorpholino)ethyl)amino)-5a,5b,8,8,11a-pentamethyl-1-(1-morpholinoethyl)-2,3,3a,4,5,5a,5b,6,7,7a,8,11,11a,11b,12,13,13a,13b-octadecahydro-1H-cyclopenta[a]chrysen-9-yl)benzoic acid]	2.05 nM
CC(=O)NC(C)[C@@H]1CC[C@]2(NCCN3CCS(=O)(=O)CC3)CC[C@]3(C)[C@H](CC[C@@H]4[C@@]5(C)CC=C(c6ccc(C(=O)O)cc6)C(C)(C)[C@@H]5CC[C@]43C)[C@@H]12 (stereo partly drawn) [Example B21, 4-((1R,3aS,5aR,5bR,7aR,11aS,11bR,13aR,13bS)-1-(1-acetamidoethyl)-3a-((2-(1,1-dioxidothiomorpholino)ethyl)amino)-5a,5b,8,8,11a-pentamethyl-2,3,3a,4,5,5a,5b,6,7,7a,8,11,11a,11b,12,13,13a,13b-octadecahydro-1H-cyclopenta[a]chrysen-9-yl)benzoic acid]	8.18 nM
COC(=O)NC(C)[C@@H]1CC[C@]2(NCCN3CCS(=O)(=O)CC3)CC[C@]3(C)[C@H](CC[C@@H]4[C@@]5(C)CC=C(c6ccc(C(=O)O)cc6)C(C)(C)[C@@H]5CC[C@]43C)[C@@H]12 (stereo partly drawn) [Example B22, 4-((1R,3aS,5aR,5bR,7aR,11aS,11bR,13aR,13bS)-3a-((2-(1,1-dioxidothiomorpholino)ethyl)amino)-1-(1-((methoxycarbonyl)amino)ethyl)-5a,5b,8,8,11a-pentamethyl-2,3,3a,4,5,5a,5b,6,7,7a,8,11,11a,11b,12,13,13a,13b-octadecahydro-1H-cyclopenta[a]chrysen-9-yl)benzoic acid]	1.02 nM
CC(NC(=O)C(F)(F)F)[C@@H]1CC[C@]2(NCCN3CCS(=O)(=O)CC3)CC[C@]3(C)[C@H](CC[C@@H]4[C@@]5(C)CC=C(c6ccc(C(=O)O)cc6)C(C)(C)[C@@H]5CC[C@]43C)[C@@H]12 (stereo partly drawn) [Example B23, 4-((1R,3aS,5aR,5bR,7aR,11aS,11bR,13aR,13bS)-3a-((2-(1,1-dioxidothiomorpholino)ethyl)amino)-5a,5b,8,8,11a-pentamethyl-1-(1-(2,2,2-trifluoroacetamido)ethyl)-2,3,3a,4,5,5a,5b,6,7,7a,8,11,11a,11b,12,13,13a,13b-octadecahydro-1H-cyclopenta[a]chrysen-9-yl)benzoic acid]	1.16 nM
CC1(C)C(c2ccc(C(=O)O)cc2)=CC[C@]2(C)[C@H]3CC[C@@H]4[C@H]5[C@H](C(=O)COS(=O)O)CC[C@]5(NCCN5CCS(=O)(=O)CC5)CC[C@@]4(C)[C@]3(C)CC[C@@H]12 [Example B24, 4-((1R,3aS,5aR,5bR,7aR,11aS,11bR,13aR,13bS)-3a-((2-(1,1-dioxidothiomorpholino)ethyl)amino)-5a,5b,8,8,11a-pentamethyl-1-(2-(sulfinooxy)acetyl)-2,3,3a,4,5,5a,5b,6,7,7a,8,11,11a,11b,12,13,13a,13b-octadecahydro-1H-cyclopenta[a]chrysen-9-yl)benzoic acid]	1000 nM
CC1(C)C(c2ccc(C(=O)O)cc2)=CC[C@]2(C)[C@H]3CC[C@@H]4[C@H]5[C@H](C(=O)CO)CC[C@]5(NCCN5CCS(=O)(=O)CC5)CC[C@@]4(C)[C@]3(C)CC[C@@H]12 [Example B25, 4-((1R,3aS,5aR,5bR,7aR,11aS,11bR,13aR,13bS)-3a-((2-(1,1-dioxidothiomorpholino)ethyl)amino)-1-(2-hydroxyacetyl)-5a,5b,8,8,11a-pentamethyl-2,3,3a,4,5,5a,5b,6,7,7a,8,11,11a,11b,12,13,13a,13b-octadecahydro-1H-cyclopenta[a]chrysen-9-yl)benzoic acid]	110 nM
COC(=O)N[C@@H]1CC[C@]2(NCCN3CCS(=O)(=O)CC3)CC[C@]3(C)[C@H](CC[C@@H]4[C@@]5(C)CC=C(c6ccc(C(=O)O)cc6)C(C)(C)[C@@H]5CC[C@]43C)[C@@H]12 [Example B26, 4-((1R,3aR,5aR,5bR,7aR,11aS,11bR,13aR,13bS)-3a-((2-(1,1-dioxidothiomorpholino)ethyl)amino)-1-((methoxycarbonyl)amino)-5a,5b,8,8,11a-pentamethyl-2,3,3a,4,5,5a,5b,6,7,7a,8,11,11a,11b,12,13,13a,13b-octadecahydro-1H-cyclopenta[a]chrysen-9-yl)benzoic acid]	2.85 nM
CC1(C)C(c2ccc(C(=O)O)cc2)=CC[C@]2(C)[C@H]3CC[C@@H]4[C@H]5[C@H](C(=O)N6CCOCC6)CC[C@]5(NCCN5CCS(=O)(=O)CC5)CC[C@@]4(C)[C@]3(C)CC[C@@H]12 [Example B27, 4-((1R,3aS,5aR,5bR,7aR,11aS,11bR,13aR,13bS)-3a-((2-(1,1-dioxidothiomorpholino)ethyl)amino)-5a,5b,8,8,11a-pentamethyl-1-(morpholine-4-carbonyl)-2,3,3a,4,5,5a,5b,6,7,7a,8,11,11a,11b,12,13,13a,13b-octadecahydro-1H-cyclopenta[a]chrysen-9-yl)benzoic acid]	8.11 nM
CNC(=O)[C@@H]1CC[C@]2(NCCN3CCS(=O)(=O)CC3)CC[C@]3(C)[C@H](CC[C@@H]4[C@@]5(C)CC=C(c6ccc(C(=O)O)cc6)C(C)(C)[C@@H]5CC[C@]43C)[C@@H]12 [Example B28, 4-((1R,3aS,5aR,5bR,7aR,11aS,11bR,13aR,13bS)-3a-((2-(1,1-dioxidothiomorpholino)ethyl)amino)-5a,5b,8,8,11a-pentamethyl-1-(methylcarbamoyl)-2,3,3a,4,5,5a,5b,6,7,7a,8,11,11a,11b,12,13,13a,13b-octadecahydro-1H-cyclopenta[a]chrysen-9-yl)benzoic acid]	110 nM
CNC(=O)N[C@@H]1CC[C@]2(NCCN3CCS(=O)(=O)CC3)CC[C@]3(C)[C@H](CC[C@@H]4[C@@]5(C)CC=C(c6ccc(C(=O)O)cc6)C(C)(C)[C@@H]5CC[C@]43C)[C@@H]12 [Example B29, 4-((1R,3aR,5aR,5bR,7aR,11aS,11bR,13aR,13bS)-3a-((2-(1,1-dioxidothiomorpholino)ethyl)amino)-5a,5b,8,8,11a-pentamethyl-1-(3-methylureido)-2,3,3a,4,5,5a,5b,6,7,7a,8,11,11a,11b,12,13,13a,13b-octadecahydro-1H-cyclopenta[a]chrysen-9-yl)benzoic acid]	30 nM
CC1(C)C(c2ccc(C(=O)O)cc2)=CC[C@]2(C)[C@H]3CC[C@@H]4[C@H]5[C@H](NC(=O)N6CCCC6)CC[C@]5(NCCN5CCS(=O)(=O)CC5)CC[C@@]4(C)[C@]3(C)CC[C@@H]12 [Example B30, 4-((1R,3aR,5aR,5bR,7aR,11aS,11bR,13aR,13bS)-3a-((2-(1,1-dioxidothiomorpholino)ethyl)amino)-5a,5b,8,8,11a-pentamethyl-1-(pyrrolidine-1-carboxamido)-2,3,3a,4,5,5a,5b,6,7,7a,8,11,11a,11b,12,13,13a,13b-octadecahydro-1H-cyclopenta[a]chrysen-9-yl)benzoic acid]	2.96 nM
CC1(C)C(c2ccc(C(=O)O)cc2)=CC[C@]2(C)[C@H]3CC[C@@H]4[C@H]5[C@H](c6nnco6)CC[C@]5(NCCN5CCS(=O)(=O)CC5)CC[C@@]4(C)[C@]3(C)CC[C@@H]12 [Example B31, 4-((1R,3aS,5aR,5bR,7aR,11aS,11bR,13aR,13bS)-3a-((2-(1,1-dioxidothiomorpholino)ethyl)amino)-5a,5b,8,8,11a-pentamethyl-1-(1,3,4-oxadiazol-2-yl)-2,3,3a,4,5,5a,5b,6,7,7a,8,11,11a,11b,12,13,13a,13b-octadecahydro-1H-cyclopenta[a]chrysen-9-yl)benzoic acid]	30 nM
CC([C@@H]1CC[C@]2(NCCN3CCS(=O)(=O)CC3)CC[C@]3(C)[C@H](CC[C@@H]4[C@@]5(C)CC=C(c6ccc(C(=O)O)cc6)C(C)(C)[C@@H]5CC[C@]43C)[C@@H]12)N1CCCC1=O (stereo partly drawn) [Example B32, 4-((1R,3aS,5aR,5bR,7aR,11aS,11bR,13aR,13bS)-3a-((2-(1,1-dioxidothiomorpholino)ethyl)amino)-5a,5b,8,8,11a-pentamethyl-1-(1-(2-oxopyrrolidin-1-yl)ethyl)-2,3,3a,4,5,5a,5b,6,7,7a,8,11,11a,11b,12,13,13a,13b-octadecahydro-1H-cyclopenta[a]chrysen-9-yl)benzoic acid]	2.84 nM
CC1(C)C(c2ccc(C(=O)O)cc2)=CC[C@]2(C)[C@H]3CC[C@@H]4[C@H]5[C@H](N)CC[C@]5(NCCN5CCS(=O)(=O)CC5)CC[C@@]4(C)[C@]3(C)CC[C@@H]12 [Example B33, 4-((1R,3aR,5aR,5bR,7aR,11aS,11bR,13aR,13bS)-1-amino-3a-((2-(1,1-dioxidothiomorpholino)ethyl)amino)-5a,5b,8,8,11a-pentamethyl-2,3,3a,4,5,5a,5b,6,7,7a,8,11,11a,11b,12,13,13a,13b-octadecahydro-1H-cyclopenta[a]chrysen-9-yl)benzoic acid]	130 nM
COCCS(=O)(=O)CCN(C)CCN[C@]12CC[C@@H](N(C)C)[C@@H]1[C@H]1CC[C@@H]3[C@@]4(C)CC=C(c5ccc(C(=O)O)cc5)C(C)(C)[C@@H]4CC[C@@]3(C)[C@]1(C)CC2 [Example B34]	20 nM
CNC(C)[C@@H]1CC[C@]2(NCCN3CCS(=O)(=O)CC3)CC[C@]3(C)[C@H](CC[C@@H]4[C@@]5(C)CC=C(c6ccc(C(=O)O)cc6)C(C)(C)[C@@H]5CC[C@]43C)[C@@H]12 (stereo partly drawn) [Example B35, 4-((1R,3aS,5aR,5bR,7aR,11aS,11bR,13aR,13bS)-3a-((2-(1,1-dioxidothiomorpholino)ethyl)amino)-5a,5b,8,8,11a-pentamethyl-1-(1-(methylamino)ethyl)-2,3,3a,4,5,5a,5b,6,7,7a,8,11,11a,11b,12,13,13a,13b-octadecahydro-1H-cyclopenta[a]chrysen-9-yl)benzoic acid]	4.24 nM
